Here are results for four molecules from ChEMBL document CHEMBL4715813, “Allicin-inspired pyridyl disulfides as antimicrobial agents for multidrug-resistant Staphylococcus aureus” (Eur J Med Chem, 2018).

Common to all, as to format: functional
Assay [1] has as its system Staphylococcus aureus. Put plainly: Antibacterial activity against methicillin-susceptible Staphylococcus aureus ATCC 25923 assessed as zone of inhibition by disc diffusion method. Note: test concentration or dose not given here.
For assay [2], the system named is Acinetobacter baumannii. Description: Antibacterial activity against Acinetobacter baumannii ATCC 19606 assessed as zone of inhibition by disc diffusion method. Note: test concentration or dose not given here.
Assay [3] concerns Pseudomonas aeruginosa. Put plainly: Antibacterial activity against Pseudomonas aeruginosa ATCC 15422 assessed as zone of inhibition by disc diffusion method. Note: test concentration or dose not given here.
The test system of assay [4] is Bacillus anthracis. Put plainly: Antibacterial activity against Bacillus anthracis Sterne 34F2 assessed as zone of inhibition by disc diffusion method.
Assay [5] relates to Enterobacter cloacae. Description: Antibacterial activity against Enterobacter cloacae ATCC 23355 assessed as zone of inhibition by disc diffusion method. Note: test concentration or dose not given here.
Assay [6] has as its system Staphylococcus aureus. Put plainly: Antibacterial activity against heterogeneous vancomycin-intermediate resistant Staphylococcus aureus Mu3 ATCC 700698 assessed as zone of inhibition by disc diffusion method. Note: test concentration or dose not given here.
For assay [7], the system named is Staphylococcus aureus. Put plainly: Antibacterial activity against hospital acquired methicillin-resistant Staphylococcus aureus ATCC 43300 assessed as zone of inhibition by disc diffusion method. Note: test concentration or dose not given here.
Assay [8] deals with Escherichia coli. Put plainly: Antibacterial activity against beta-lactam resistant Escherichia coli BAA 2326 assessed as zone of inhibition by disc diffusion method. Note: test concentration or dose not given here.
In assay [9] the test system is Enterococcus faecalis. Description: Antibacterial activity against vancomycin-susceptible Enterococcus faecalis ATCC 29212 assessed as zone of inhibition by disc diffusion method. Note: test concentration or dose not given here.
Assay [10] concerns Staphylococcus aureus. Put plainly: Antibacterial activity against vancomycin-intermediate resistant Staphylococcus aureus Mu50 ATCC 700699 assessed as zone of inhibition by disc diffusion method. Note: test concentration or dose not given here.
Assay [11] concerns Staphylococcus aureus. Put plainly: Antibacterial activity against community acquired methicillin-resistant Staphylococcus aureus BAA 1747 assessed as zone of inhibition by disc diffusion method. Note: test concentration or dose not given here.
For assay [12], the system named is Klebsiella pneumoniae. Put plainly: Antibacterial activity against multidrug-resistant Klebsiella pneumoniae ATCC 700603 assessed as zone of inhibition by disc diffusion method. Note: test concentration or dose not given here.
Assay [13] deals with Staphylococcus aureus. Description: Antibacterial activity against vancomycin-resistant Staphylococcus aureus HIP11714 assessed as zone of inhibition by disc diffusion method. Note: test concentration or dose not given here.
Assay [14] deals with Staphylococcus epidermidis. Put plainly: Antibacterial activity against Staphylococcus epidermidis ATCC 14990 assessed as zone of inhibition by disc diffusion method. Note: test concentration or dose not given here.
In assay [15] the test system is Enterococcus faecium. Description: Antibacterial activity against vancomycin-resistant Enterococcus faecium ATCC 700221 assessed as zone of inhibition by disc diffusion method. Note: test concentration or dose not given here.
The subject of assay [16] is Acinetobacter baumannii. Description: Antibacterial activity against multidrug-resistant Acinetobacter baumannii BAA 1605 assessed as zone of inhibition by disc diffusion method. Note: test concentration or dose not given here.

In the case of `CCSSc1ccccn1`, the “diameter of the inhibition zone (DIZ)” value in [1] is recorded as 13 mm; in [2], 18 mm; in [3] it was 0 mm; in assay [4] it was 50 mm; in assay [5], 10 mm; in [6], 0 mm. For the same molecule, the “diameter of the inhibition zone (DIZ)” value in assay [7] came out at 12 mm; in [8], 0 mm; in [9] it was 15 mm; in assay [10] it was 0 mm; in [11] it was 13 mm; in assay [12] it was 0 mm. Moreover, the “diameter of the inhibition zone (DIZ)” value in [13] is reported as 0 mm; in assay [14] it was 26 mm; in [15] it was 0 mm; in assay [16], 12 mm.
`CCCCCCCCCCSSc1ccccn1`: the “diameter of the inhibition zone (DIZ)” value in assay [1] turned out to be 12 mm; in assay [2] it was 0 mm; in assay [3], 0 mm; in assay [4], 28 mm; in [5], 0 mm; in assay [6], 0 mm. For the same molecule, the “diameter of the inhibition zone (DIZ)” value is reported as 14 mm in assay [7]; 0 mm in assay [8]; 9 mm in assay [9]; 11 mm in [10]; 15 mm in [11]; 0 mm in assay [12]. Further, the “diameter of the inhibition zone (DIZ)” value in assay [13] came out at 11 mm; in assay [14] it was 26 mm; in assay [15], 9 mm; in assay [16], 0 mm.
As to `CCC(C)SSc1ccccn1` (centres undefined), the “diameter of the inhibition zone (DIZ)” value is listed as 0 mm in assay [1]; 0 mm in assay [2]; 0 mm in [3]; 23 mm in assay [4]; 0 mm in [5]; 0 mm in assay [6]. Moreover, the “diameter of the inhibition zone (DIZ)” value in [7], in assay [8], in assay [9], in assay [10], in assay [11] and in [12] was 0 mm throughout. Besides, the “diameter of the inhibition zone (DIZ)” value in [13] is listed as 0 mm; in assay [14], 20 mm; in [15], 0 mm; in assay [16], 0 mm.
Turning to `O=C(O)CCSSc1ccccn1`, the “diameter of the inhibition zone (DIZ)” value in assay [1] is on record as 16 mm; in assay [2], 0 mm; in assay [3] it was 0 mm; in assay [4] it was 24 mm; in assay [5], 0 mm; in assay [6], 15 mm. Moreover, the “diameter of the inhibition zone (DIZ)” value in assay [7] turned out to be 14 mm; in [8], 0 mm; in [9] it was 0 mm; in assay [10], 15 mm; in assay [11], 14 mm; in assay [12], 0 mm. In addition, the “diameter of the inhibition zone (DIZ)” value in assay [13] is listed as 21 mm; in assay [14], 10 mm; in [15], 0 mm; in [16] it was 0 mm.
